Laboratory results published in publication PMC8766875 (Nature biotechnology, 2021).

Columns and labels:
[1] = cited from earlier work
[2] = design: species or system swine (female Yorkshire); conditions: in vivo
swine = test: Pharmacodynamic response in dosed swine; format: in vivo
[3] = In vivo pharmacokinetics of insulin and GLP-1 analog in swine; conditions: removed from dataset
[4] = 0.24 mg, injection (intramuscular) and L-SOMA groups

semaglutide
oral bioavailability ([1]; in vivo, po): approximately 1%

CNC[C@H](O)c1ccc(O)c(O)c1 [epinephrine]
systemic uptake after endoscopic gavage (negative control) [2]: negligible uptake
blood glucose response (swine; [4]): rapid rise
heart rate response (swine; [4]): rapid rise in heart rate

GLP-1
ability to traverse the stomach lining for systemic uptake ([1]; in vivo): severely limited ability
bioavailability when using a permeation enhancer ([1]; not told): approximately 1%

recombinant human insulin
plasma glucose response (swine; 4 IU, injection and L-SOMA groups): immediate hypoglycemic onset
plasma insulin level at t=0 ([3]; one L-SOMA-dosed swine, possible sample contamination): 41.6 pM
peak plasma level ([3]; same single L-SOMA-dosed swine, at 45 minutes): 136 pM

adalimumab
systemic uptake after endoscopic gavage (negative control) [2]: negligible uptake
